Drawing on PubChem BioAssay (NCI), this text covers TGI and GI50 for 15 molecules.

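Test compounds were applied to cells in 96-well plates for 48 hours at 5 doses. Here, GI50 denotes the concentration required for 50% inhibition of growth. TGI is the concentration that stops growth completely.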

Some test systems named below: SK-OV-3 ovarian; A498 renal; SNB-75 CNS; SW-620 colon; HT29 colon; COLO 205 colon; OVCAR-8 ovarian; HL-60(TB) leukemia; IGROV1 ovarian; DU-145 prostate.
What all share (assay): NCI-60 cell line screen, 48 h

Turning to `O=C(O)c1ccc2c(c1)C(=O)N(c1ccc(S(=O)(=O)c3ccc(N4C(=O)c5ccc(C(=O)O)cc5C4=O)cc3)cc1)C2=O`, the TGI in the assay with SK-OV-3 ovarian, in the assay with A498 renal, in the assay with SNB-75 CNS, in the assay on SW-620 colon, in the assay with HT29 colon and in the assay on COLO 205 colon was above 100 µM in each case. Besides, the TGI with OVCAR-8 ovarian and in the assay on HL-60(TB) leukemia was above 100 µM each time.
For `CC1(C)c2ccccc2N2C(c3ccccc3)=NOC21C` (configuration not stated), the TGI with SK-OV-3 ovarian, with A498 renal, in the assay on SNB-75 CNS, in the assay with SW-620 colon, in the assay with IGROV1 ovarian and in the assay with HT29 colon was above 100 µM throughout. The TGI in the assay with COLO 205 colon, in the assay on OVCAR-8 ovarian and in the assay with HL-60(TB) leukemia was above 100 µM in each case.
Turning to `C=C1C(=O)O[C@H](c2ccoc2)C[C@@H]1[C@@]1(C)CCCC2(C)C(=O)OCC21` (some centres not stated), the TGI in the assay on SK-OV-3 ovarian, with A498 renal, in the assay with SNB-75 CNS, in the assay on SW-620 colon, in the assay with IGROV1 ovarian and in the assay on HT29 colon was above 100 µM in each case. For the same molecule, the TGI in the assay with COLO 205 colon and in the assay with OVCAR-8 ovarian was above 100 µM throughout.
As for `CC1OC(n2cc(C(F)(F)F)c(=O)[nH]c2=O)C=CC1=O` (configuration not stated), the TGI in the assay with SK-OV-3 ovarian turned out to be 44.9 µM; with SNB-75 CNS, 32.8 µM; in the assay with SW-620 colon, 35.9 µM; in the assay on IGROV1 ovarian, 39.9 µM; in the assay with HT29 colon, 54.6 µM; in the assay with COLO 205 colon, 35.2 µM. Moreover, the TGI was determined as 80 µM in the assay with OVCAR-8 ovarian and 41.2 µM with HL-60(TB) leukemia.
Take `C/C=C/C(=O)Oc1cccc2cccnc12`: the TGI in the assay on SK-OV-3 ovarian is above 100 µM; with SNB-75 CNS, above 75.6 µM; with SW-620 colon, 38.5 µM; in the assay with IGROV1 ovarian, above 94.7 µM; with HT29 colon it was 58 µM; in the assay on COLO 205 colon it was 35.9 µM. The TGI is 54.3 µM in the assay with OVCAR-8 ovarian and above 33.8 µM with HL-60(TB) leukemia.
Take `CCOC(=O)C1=C(C)NC(=O)NC1c1ccc(OC)cc1OC` (configuration not stated): the TGI in the assay with SK-OV-3 ovarian, in the assay on A498 renal, in the assay on SNB-75 CNS, with SW-620 colon, with IGROV1 ovarian and in the assay with HT29 colon was above 100 µM throughout. Further, the TGI in the assay with COLO 205 colon, in the assay on OVCAR-8 ovarian and with HL-60(TB) leukemia was above 100 µM in each case.
As for `COc1ccc(CN2C(=O)[C@@H]3Cc4c(OC)c(C)c(OC)c(OC)c4[C@H](/C2=C\c2cc(OC)c(OC)c(C)c2OC)N3C(=O)OC(C)C)cc1`, the TGI in the assay with SK-OV-3 ovarian, with A498 renal, in the assay on SNB-75 CNS, with SW-620 colon, in the assay with IGROV1 ovarian and with HT29 colon was above 100 µM throughout. Besides, the TGI in the assay with COLO 205 colon, in the assay with OVCAR-8 ovarian and in the assay on HL-60(TB) leukemia was above 100 µM in each case.
Consider `Nc1cccc2c1-c1c(cccc1[N+](=O)[O-])C2=O`, for which the TGI with SK-OV-3 ovarian, in the assay on A498 renal, in the assay with SNB-75 CNS, in the assay with SW-620 colon, with IGROV1 ovarian and in the assay with HT29 colon was above 100 µM in each case. For the same molecule, the TGI with COLO 205 colon, in the assay with OVCAR-8 ovarian and in the assay on HL-60(TB) leukemia was above 100 µM throughout.
Take `N#C/C(=C\c1c(O)cc(O)cc1O)C(N)=O`: the TGI in the assay with SK-OV-3 ovarian, with A498 renal, in the assay with SNB-75 CNS, in the assay on SW-620 colon, in the assay with HT29 colon and in the assay on COLO 205 colon was above 100 µM throughout. Moreover, the TGI in the assay on OVCAR-8 ovarian and with HL-60(TB) leukemia was above 100 µM each time.
For the molecule `CCC12C=CCN(CCc3c([nH]c4ccccc34)/C=C\1)C2` (configuration not stated), the TGI with A498 renal, in the assay on SNB-75 CNS, in the assay with SW-620 colon, in the assay on IGROV1 ovarian, in the assay with HT29 colon and in the assay with COLO 205 colon was above 100 µM in each case. For the same molecule, in the assay on HL-60(TB) leukemia, the TGI was above 100 µM.
Take `Cc1ccccc1NC(=O)Cc1nc2ccccc2s1`: the TGI in the assay with SK-OV-3 ovarian is 43.3 µM; in the assay on A498 renal, 35.7 µM; in the assay on SNB-75 CNS it was above 100 µM; in the assay with SW-620 colon, 36 µM; in the assay with HT29 colon, 38.4 µM; in the assay with COLO 205 colon, above 100 µM. For the same molecule, the TGI was found to be 32.4 µM in the assay with OVCAR-8 ovarian and 62 µM with HL-60(TB) leukemia.
In the case of `Cc1ccccc1NC(=O)/C(=N\NC(N)=S)C(C#N)c1ccccc1` (configuration not stated), the TGI in the assay with SK-OV-3 ovarian, with A498 renal, in the assay with SNB-75 CNS, in the assay with SW-620 colon, in the assay on IGROV1 ovarian and with HT29 colon was above 100 µM each time. Further, the TGI in the assay on COLO 205 colon, with OVCAR-8 ovarian and in the assay with HL-60(TB) leukemia was above 100 µM each time.
Turning to `COC(=O)C1C(C(=O)O)C2(c3ccccc3)C(=O)C1(c1ccccc1)C(c1ccccc1)=C2c1ccccc1` (configuration not stated), the GI50 in the assay with SK-OV-3 ovarian was 18.3 µM; in the assay with A498 renal it was 15.2 µM; with SW-620 colon, 19.8 µM; in the assay with IGROV1 ovarian it was 17.2 µM; in the assay on COLO 205 colon, 18.8 µM; with OVCAR-8 ovarian, 18.8 µM. For the same molecule, the GI50 in the assay with DU-145 prostate was 16.9 µM. Besides, the TGI in the assay with SK-OV-3 ovarian was 36.6 µM; with A498 renal, 29.3 µM; in the assay with SW-620 colon, 40.2 µM; in the assay on IGROV1 ovarian, 33 µM; in the assay with COLO 205 colon, 39.3 µM; in the assay with OVCAR-8 ovarian, 35.9 µM. The same molecule displayed a TGI in the assay on DU-145 prostate of 34 µM.
In the case of `Cn1[nH]cc2ccc3nc4ccccc4c(=O)c3c21`, the TGI was above 100 µM with SK-OV-3 ovarian; 67.7 µM in the assay with A498 renal; 94.5 µM in the assay with SNB-75 CNS; above 100 µM with SW-620 colon; above 100 µM in the assay with IGROV1 ovarian; above 100 µM with HT29 colon. For the same molecule, the TGI in the assay with COLO 205 colon is 92.6 µM; in the assay on OVCAR-8 ovarian it was above 94.9 µM; in the assay on HL-60(TB) leukemia it was 90.8 µM.
For `COC(=O)c1c(O)ccc(O)c1C(C(C)=O)C(C)=O`, the TGI in the assay with SK-OV-3 ovarian, in the assay with A498 renal, in the assay with SNB-75 CNS, in the assay on SW-620 colon, in the assay with IGROV1 ovarian and in the assay with HT29 colon was above 100 µM in each case. The TGI in the assay with COLO 205 colon, with OVCAR-8 ovarian and in the assay on HL-60(TB) leukemia was above 100 µM in each case.
